Row | Compound | CH4 permeability [Barrer] | CO2 permeability [Barrer] | H2 permeability [Barrer] | N2 permeability [Barrer] | O2 permeability [Barrer]
1 | *C/C=C(/C)C* (repeat unit) | 29.6 | 153 | 49 | 8.75 | 23.3
2 | *Oc1ccc2c(c1)C1(CC2(C)C)CC(C)(C)c2ccc(OC(=O)c3ccc(C(*)=O)cc3)cc21 (repeat unit) | 4.22 | 55.7 |  | 2.98 | 13.4
3 | *c1ccc(-c2ccc(N3C(=O)c4ccc(-c5ccc6c(c5)C(=O)N(*)C6=O)cc4C3=O)c(O)c2)cc1O (repeat unit) | 0.00041 | 0.0313 |  | 0.001 | 0.0096
4 | *c1cc(C)c(C)c(N2C(=O)c3ccc(Oc4cc(C)ccc4Oc4ccc5c(c4)C(=O)N(*)C5=O)cc3C2=O)c1C (repeat unit) | 0.57 | 22 | 41 | 0.65 | 3.9
5 | *Oc1ccc(C(=O)c2ccc(-c3ccc(C(=O)c4ccc(Oc5ccc(S(=O)(=O)c6ccc(*)cc6)cc5)cc4)cc3)cc2)cc1 (repeat unit) | 0.12 | 3.27 | 8.38 | 0.11 | 0.64
6 | *Oc1c(C)cc(C(C)(C)c2cc(C)c(Oc3ccc(C(=O)c4ccc(*)cc4)cc3)c(C)c2)cc1C (repeat unit) | 1.1 | 20 | 52 | 1.1 | 5.6
7 | *Nc1ccc(C(C)(C)c2ccc(NC(=O)c3ccc(Oc4cc(C(C)(C)C)c(Oc5ccc(C(*)=O)cc5)cc4C(C)(C)C)cc3)c(C)c2)cc1C (repeat unit) | 0.9 | 21 |  | 0.81 | 4.5
8 | *c1ccc(Oc2ccc(Oc3ccc(*)cc3)c3c2C2c4ccccc4C3c3ccccc32)cc1 (repeat unit) | 0.21 | 13.5 |  | 0.58 | 3.4
9 | *Oc1ccc(C(c2ccc(OC(=O)c3cccc(C(*)=O)c3)cc2)(C(F)(F)F)C(F)(F)F)cc1 (repeat unit) | 0.736 | 16.6 | 37.3 | 0.958 | 4.54
10 | *c1c(C)c(C)c(N2C(=O)c3ccc(Oc4cc(C)ccc4Oc4ccc5c(c4)C(=O)N(*)C5=O)cc3C2=O)c(C)c1C (repeat unit) | 0.47 | 20 | 41 | 0.59 | 3.5
11 | *c1ccc2c(-c3c(O)ccc4cc(N5C(=O)c6ccc(Oc7ccc8c(c7)C(=O)N(*)C8=O)cc6C5=O)ccc34)c(O)ccc2c1 (repeat unit) | 0.03 | 1.87 | 2.72 | 0.05 | 0.35
12 | *Oc1cc2c(cc1O*)C1(CC2(C)C)CC(C)(C)c2cc3c(cc21)Oc1c(C#N)c(*)c(*)c(C(=O)O)c1O3 (repeat unit) |  | 2540 | 1540 | 162 | 534
13 | *CC(*)(Cl)Cl (repeat unit) |  | 0.029 |  | 0.000939 | 0.00519
14 | *C(=C(*)c1ccc([Si](C)(C)CCCCCCCC)cc1)c1ccccc1 (repeat unit) |  | 170 |  | 11 | 34
15 | *CC(*)c1ccc(Br)cc1 (repeat unit) | 0.48 | 8.5 |  | 0.32 | 1.9
16 | *Oc1ccc(S(=O)(=O)c2ccc(Oc3ccc(C(C)(C)c4ccc(*)cc4)cc3)cc2)cc1 (repeat unit) | 0.258 | 5.6 | 14 | 0.249 | 1.4
17 | *Oc1ccc(C(C)(C)c2ccc(OCCC(*)O)cc2)cc1 (repeat unit) | 0.02 | 0.5 |  | 0.019 | 0.09
18 | *c1cc(CCCCCCCCCCCC)c(*)s1 (repeat unit) |  | 88.2 |  | 9.4 | 20.2
19 | *c1cccc(-c2nnc(*)n2-c2ccccc2)c1 (repeat unit) | 0.0491 | 2.7 |  | 0.09 | 0.52
20 | *c1c(C)cc(-c2cc(C)c(N3C(=O)c4ccc(C(=O)Oc5ccc(C(c6ccc(OC(=O)c7ccc8c(c7)C(=O)N(*)C8=O)cc6)(C(F)(F)F)C(F)(F)F)cc5)cc4C3=O)c(C)c2)cc1C (repeat unit) |  |  | 38 | 0.549 | 3.02
21 | *C(=C(*)c1ccc(C(C)C)cc1)c1ccccc1 (repeat unit) |  | 1100 |  | 150 | 300
22 | *OC(=O)c1cccc(C(=O)Oc2ccc(C(C)(C)c3ccc(O*)c(C)c3)cc2C)c1 (repeat unit) | 0.044 | 2.5 |  | 0.076 | 0.46

Row | Compound | CH4 permeability [Barrer] | CO2 permeability [Barrer] | H2 permeability [Barrer] | N2 permeability [Barrer] | O2 permeability [Barrer]
23 | *c1ccc(-c2cc(C)c(-c3ccc(*)cc3C)cc2C)c(C)c1 (repeat unit) | 0.88 | 32 | 72 | 1.4 | 7.2
24 | *C(C(=O)OC(C)C)C(*)C(=O)OC(C)CC(C)C (repeat unit) |  |  | 156 | 14 | 45
25 | *N=P(*)(C)C (repeat unit) |  | 29.4 |  | 1.27 | 3.53
26 | *Oc1ccc(C(c2ccc(Oc3ccc(C(=O)c4ccc(C(c5ccc(C(=O)c6ccc(*)cc6)cc5)(C(F)(F)F)C(F)(F)F)cc4)cc3)cc2)(C(F)(F)F)C(F)(F)F)cc1 (repeat unit) | 0.477 | 11.5 | 31.4 | 0.76 | 3.7
27 | *c1cc(C)c(C)c(N2C(=O)c3ccc(Oc4cc(C(C)(C)C)ccc4Oc4ccc5c(c4)C(=O)N(*)C5=O)cc3C2=O)c1C (repeat unit) | 2.5 | 63 | 85 | 2.2 | 11
28 | */C(C)=C(/*)[Si](C)(C)CC (repeat unit) | 1200 | 4600 | 1930 | 490 | 970
29 | *c1ccc2c(-c3c(OC(C)=O)ccc4cc(N5C(=O)c6ccc(Oc7ccc8c(c7)C(=O)N(*)C8=O)cc6C5=O)ccc34)c(OC(C)=O)ccc2c1 (repeat unit) | 0.05 | 2.38 | 3.18 | 0.1 | 0.61
30 | *Oc1ccc(C(C)(C)c2ccc(OC(=O)c3cc(C(*)=O)cc(C(C)(C)C)c3)c(C(C)C)c2)cc1C(C)C (repeat unit) | 1.43 | 16.1 | 41.4 | 1.08 | 5.03
31 | *=CC1CC(C=*)C2C(=O)N(c3ccccc3)C(=O)C12 (repeat unit) | 0.54 | 11.4 | 11 | 0.31 | 1.44
32 | *C1C(*)C2CC1C1CC([Si](C)(C)C)C21 (repeat unit) | 1010 | 5300 | 2060 | 390 | 990
33 | *c1c(C)c2c(c(N3C(=O)c4ccc(C(c5ccc6c(c5)C(=O)N(*)C6=O)(C(F)(F)F)C(F)(F)F)cc4C3=O)c1C)C(C)(C)CC2 (repeat unit) | 50.5 | 692 |  | 58.6 | 198
34 | */C(C)=C(/*)[Si](C)(C)c1ccccc1 (repeat unit) | 1.7 | 37.6 | 14 | 1.2 | 4.4
35 | *Oc1ccc(-c2ccc(Oc3ccc(S(=O)(=O)c4ccc(*)cc4)cc3)cc2)cc1 (repeat unit) | 0.25 | 5.6 | 28 | 0.24 | 1.3
36 | */N=C1/c2cc(C(c3ccc4c(c3)C(=O)n3c-4nc4c(Oc5ccc(*)c(*)c5)cccc43)(C(F)(F)F)C(F)(F)F)ccc2C(=O)N1* (repeat unit) | 0.54 | 27.6 |  | 1.22 | 7.9
37 | *C(=C(*)c1ccc2c(c1)C(C)(C)c1ccccc1-2)c1ccc([Si](C)(C)C)cc1 (repeat unit) | 525 | 1900 | 1040 | 200 | 455
38 | *CC(*)OC(=O)c1ccccc1C (repeat unit) | 0.115 | 2.23 |  | 0.0859 | 0.47
39 | *CC(*)OC(=O)c1cccc(C)c1 (repeat unit) | 0.118 | 2.13 |  | 0.0875 | 0.496
40 | *c1ccc(Oc2ccc(C3(c4ccc(Oc5ccc(N6C(=O)c7ccc(C(c8ccc9c(c8)C(=O)N(*)C9=O)(C(F)(F)F)C(F)(F)F)cc7C6=O)c(C)c5)cc4)c4ccccc4-c4ccccc43)cc2)cc1C (repeat unit) | 0.34 | 11.7 | 47.3 | 0.73 | 3.62
41 | *Cc1ccc(C*)c(Br)c1 (repeat unit) |  | 0.036 | 0.452 |  | 
42 | *c1ccc(Oc2ccc(N3C(=O)c4ccc(C(c5ccc6c(c5)C(=O)N(*)C6=O)(C(F)(F)F)C(F)(F)F)cc4C3=O)cc2)cc1 (repeat unit) | 0.407 | 20.6 | 44 | 0.797 | 4.21
43 | *C(=C(*)c1ccc2c(c1)C(C)(C)c1ccccc1-2)c1ccc(Br)cc1 (repeat unit) | 9300 | 17000 | 8700 | 3500 | 5000

Source: a polymer gas permeability compilation
